This note sets out measurements from US8501713B2, “Drug combinations for the treatment of duchenne muscular dystrophy” (Summit Corporation PLC, priority 2007, dated 2013).

The experiment relates to Utrophin A promoter linked to a luciferase reporter gene. Nature of the experiment: Luciferase reporter assay (murine H2K cells). Conditions: luciferase reporter assay in murine H2K cells; classified relative to control. The experiment is classed as cell-based. In a few lines:
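Compound at 10 μM final was applied for 48 hrs to plated H2K mdx myoblasts (33° C, 10% CO2, interferon-containing medium) bearing a luciferase gene under the utrophin A promoter. Luminescence from lysed cells served as read-out.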
On the technique in general: Reporter assays use an easily measured gene product as a stand-in for the process of interest.

Consider `O=[N+]([O-])c1cc(-c2nc3ccccc3s2)ccc1Cl` [Example 523], for which the Activity result is given as “+ (Up to 200% relative to control)”.
With `O=[N+]([O-])c1ccc(Cl)c(-c2nc3ccccc3s2)c1` [Example 524] the entry was “+ (Up to 200% relative to control)”; with `O=[N+]([O-])c1ccc2oc(-c3ccc(F)cc3)nc2c1` [Example 525], “+ (Up to 200% relative to control)”.
To `Cc1ccc(-c2nc3cc(N)ccc3o2)cc1Cl` [Example 526] belongs “++ (Between 201% and 300% relative to control)”.
Turning to `Cc1ccc(-c2nc3cc(N)ccc3o2)c(Cl)c1` [Example 527], the Activity result was “++ (Between 201% and 300% relative to control)”.
On to `COc1ccc(OCc2nc3ccccc3n2C)cc1` [Example 528], for which the Activity entry is “++ (Between 201% and 300% relative to control)”.
With `CC(=O)Nc1ccc(-c2nc3cc(C)cc(C)c3o2)cc1` [Example 529] the entry was “++ (Between 201% and 300% relative to control)”; with `c1ccc(-c2nnc(SCc3nc4ccccc4[nH]3)o2)cc1` [Example 530], “+ (Up to 200% relative to control)”; with `Cc1ccc(OCc2nc3ccccc3[nH]2)cc1` [Example 531], “++ (Between 201% and 300% relative to control)”.
Regarding `Cc1ccc2[nH]c(-c3ccc(N)cc3)nc2c1` [Example 532], the Activity result is “+ (Up to 200% relative to control)”.
To `Cc1cccc(-c2nc3cc([N+](=O)[O-])ccc3o2)c1` [Example 533] belongs “++ (Between 201% and 300% relative to control)”; to `CC(=O)Nc1ccc2[nH]c(-c3ccco3)nc2c1` [Example 534], “+ (Up to 200% relative to control)”.
As for `COc1ccc(-c2nc3cc(N)ccc3[nH]2)cc1` [Example 535], the Activity entry was “++ (Between 201% and 300% relative to control)”.
To `Cc1ccc(S(=O)(=O)Nc2ccc3[nH]c(-c4ccco4)nc3c2)cc1` [Example 536] belongs “+ (Up to 200% relative to control)”.
To `COc1ccc(-c2nc3cc([N+](=O)[O-])ccc3o2)cc1OC` [Example 537] belongs “+ (Up to 200% relative to control)”; to `Cc1ccc2nc(-c3cccc(NC(=O)c4ccco4)c3)[nH]c2c1` [Example 538], “+ (Up to 200% relative to control)”.
To `Cc1cc(-c2nc3cc(Cl)ccc3o2)ccc1[N+](=O)[O-]` [Example 539] belongs “+ (Up to 200% relative to control)”.
Turning to `O=C(Nc1ccc(-c2nc3ccccc3[nH]2)cc1)c1ccc2c(c1)OCO2` [Example 540], the Activity entry was “+ (Up to 200% relative to control)”.
Take `Cn1c(-c2ccc(Cl)cc2)nc2ccccc21` [Example 541]: the Activity entry was “++ (Between 201% and 300% relative to control)”.
With `COc1ccc(-c2nc3ccccc3s2)cc1NC(C)=O` [Example 542] the entry was “++ (Between 201% and 300% relative to control)”; with `CSc1ccc(-c2nc3ccccc3[nH]2)cc1` [Example 543], “++ (Between 201% and 300% relative to control)”.
Take `Nc1ccc(-c2nc3ccc(N)cc3o2)cc1` [Example 544]: the Activity result was “++ (Between 201% and 300% relative to control)”.
With `Cc1ccc2nc(-c3ccc(NC(=O)c4ccccc4C(=O)O)cc3)sc2c1` [Example 545], the Activity result is recorded as “+ (Up to 200% relative to control)”.
With `C(=C\c1nc2ccccc2[nH]1)/c1ccccc1` [Example 547] the entry was “+++ (Between 301% and 400% relative to control)”; with `Cc1ccc(C)c(OCc2nc3ccccc3[nH]2)c1` [Example 548], “+ (Up to 200% relative to control)”; with `CCOc1ccc(-c2nc3cc(N)ccc3o2)cc1` [Example 549], “+ (Up to 200% relative to control)”.
To `Nc1ccc(O)c(-c2nc3cc(N)ccc3s2)c1` [Example 550] belongs “+ (Up to 200% relative to control)”; to `CCc1ccc2oc(-c3cc(N)ccc3O)nc2c1` [Example 551], “+ (Up to 200% relative to control)”.
As to `c1ccc(NNc2nc3ccccc3s2)cc1` [Example 552], the Activity entry was “+ (Up to 200% relative to control)”.
On to `CCc1ccc2oc(-c3ccc(N)cc3)nc2c1` [Example 553], for which the Activity entry is “++++ (Above 401% relative to control)”.
With `Cc1ccc2[nH]c(-c3ccccc3N)nc2c1` [Example 554] the entry was “+++ (Between 301% and 400% relative to control)”.
To `CCOc1ccc2nc(NC(=O)c3ccccc3)sc2c1` [Example 555] belongs “+ (Up to 200% relative to control)”; to `CC(=O)Nc1ccc(-c2nc3cc(Cl)c(NC(C)=O)cc3[nH]2)cc1` [Example 556], “+ (Up to 200% relative to control)”.
With `Nc1ccc(Oc2ccc(-c3nc4ccccc4[nH]3)cc2)cc1` [Example 557], the Activity entry was “++++ (Above 401% relative to control)”.
Turning to `c1ccc(-c2ccc(-c3nc4ccccc4[nH]3)cc2)cc1` [Example 558], the Activity result is given as “+ (Up to 200% relative to control)”.
With `Cc1cc2nc(-c3cc(N)ccc3O)oc2cc1C` [Example 559] the entry was “+++ (Between 301% and 400% relative to control)”; with `Nc1ccc2[nH]c(-c3ccc(Cl)cc3)nc2c1` [Example 560], “+++ (Between 301% and 400% relative to control)”; with `c1csc(-c2nc3cc4ccccc4cc3[nH]2)c1` [Example 561], “+++ (Between 301% and 400% relative to control)”.
In the case of `O=C(Nc1ccc(-c2nc3ccccc3[nH]2)cc1)c1ccco1` [Example 562], the Activity entry was “+++ (Between 301% and 400% relative to control)”.
To `CCSc1nc2ccc(N)cc2s1` [Example 563] belongs “++ (Between 201% and 300% relative to control)”.
As for `Cc1ccc2nc(-c3ccc(NC(=O)C(C)C)cc3)oc2c1` [Example 564], the Activity entry was “+ (Up to 200% relative to control)”.
With `CC(C)c1ccc2oc(-c3ccc(N)cc3O)nc2c1` [Example 565] the entry was “+++ (Between 301% and 400% relative to control)”; with `Cc1c(N)cccc1-c1nc2cc(Cl)ccc2o1` [Example 566], “+ (Up to 200% relative to control)”; with `Cc1ccc(C(=O)Nc2nc3ccccc3s2)c(Cl)c1` [Example 567], “+ (Up to 200% relative to control)”.
As to `Cc1ccc(-c2nc3ccccc3[nH]2)cc1NC(=O)C(F)(F)F` [Example 568], the Activity result is “+++ (Between 301% and 400% relative to control)”.
With `Nc1ccc2oc(-c3ccccc3F)nc2c1` [Example 569] the entry was “+++ (Between 301% and 400% relative to control)”; with `CCCCc1nc2cc(S(=O)(=O)CC)ccc2o1` [Example 570], “+ (Up to 200% relative to control)”; with `CCCc1nc2cc(S(=O)(=O)CC)ccc2o1` [Example 571], “+ (Up to 200% relative to control)”.
On to `CCc1nc2cc(S(=O)(=O)CC)ccc2o1` [Example 572], for which the Activity entry was “+ (Up to 200% relative to control)”.
With `CCS(=O)(=O)c1ccc2ocnc2c1` [Example 573] the entry was “+ (Up to 200% relative to control)”; with `CCS(=O)(=O)c1ccc2oc(S)nc2c1` [Example 574], “+ (Up to 200% relative to control)”.
With `CC(=O)Nc1cccc(-c2ccc3oc(-c4ccc(Cl)cc4)nc3c2)c1` [Example 575] the entry was “++++ (Above 401% relative to control)”; with `CCNC(=O)Nc1ccc2[nH]c(C(C)(C)C)cc2c1` [Example 576], “+ (Up to 200% relative to control)”.
Take `Nc1ccc2oc(-c3cccc4ccccc34)nc2c1` [Example 577]: the Activity entry is “+ (Up to 200% relative to control)”.
Consider `CCCS(=O)(=O)c1ccc2oc(-c3ccc(Cl)cc3)nc2c1` [Example 578], for which the Activity entry was “+ (Up to 200% relative to control)”.
With `Oc1ccc2nc(-c3ccc(Cl)cc3)oc2c1` [Example 579] the entry was “++++ (Above 401% relative to control)”; with `Cc1ccc2[nH]c(-c3ccc(NC(=O)c4ccco4)cc3)nc2c1` [Example 580], “+++ (Between 301% and 400% relative to control)”; with `O=C(c1ccccc1)c1ccc2nc(-c3ccccc3)[nH]c2c1` [Example 581], “+ (Up to 200% relative to control)”.
To `COc1ccc(-c2nc3ccccc3s2)cc1` [Example 582] belongs “++++ (Above 401% relative to control)”; to `COc1ccc(-c2nc3ccccc3o2)cc1` [Example 583], “+++ (Between 301% and 400% relative to control)”.
With `COc1ccc(-c2nc3ccc([N+](=O)[O-])cc3o2)cc1` [Example 584] the entry was “+++ (Between 301% and 400% relative to control)”.
Consider `O=C(Nc1ccc(-c2nc3ccccc3[nH]2)cc1)c1cccs1` [Example 585], for which the Activity result was “++++ (Above 401% relative to control)”.
To `COc1ccc(-c2nc3cc([N+](=O)[O-])ccc3[nH]2)cc1` [Example 586] belongs “++ (Between 201% and 300% relative to control)”; to `O=C(Nc1ccc(-c2nc3ccccc3[nH]2)cc1)C1CCCO1` (stereo not shown) [Example 587], “+++ (Between 301% and 400% relative to control)”; to `Cc1ccc(-c2nc3ccccc3n2C)cc1` [Example 588], “+++ (Between 301% and 400% relative to control)”.
To `CC(=O)Nc1ccc(-c2nc3ccccc3o2)cc1` [Example 589] belongs “+++ (Between 301% and 400% relative to control)”; to `Cc1cc(C)c2nc(-c3ccc(N)cc3)oc2c1` [Example 590], “++++ (Above 401% relative to control)”.
For `CC(=O)Nc1ccc(-c2nc3ccccc3[nH]2)cc1` [Example 591], the Activity result is “+++ (Between 301% and 400% relative to control)”.
As to `Nc1cc(-c2nc3ccccc3s2)ccc1Cl` [Example 592], the Activity entry is given as “++++ (Above 401% relative to control)”.
With `CC(C)(C)c1ccc2oc(-c3ccc(N)cc3)nc2c1` [Example 593] the entry was “+++ (Between 301% and 400% relative to control)”.
